Source: paper PMC7539012, “Hyperphosphorylated tau aggregation and cytotoxicity modulators screen identified prescription drugs linked to Alzheimer's disease and cognitive functions” (Scientific Reports, 2020)
Structures can show the parent of a compound that is named as a salt.

System: T1, 1N4R p-tau
T1 construct: made in house; host or cells: E. coli (PIMAX system)
Assay: p-tau aggregation modulator screen of 1280-compound library (ThS fluorescence net change over 16 h);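 for ThS net change: 30 µM compound with 6 µM p-tau over 16 h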
Assay type: biochemical
Set-up: key to PTAI>2SD: *: PTAI>2SD
Details: not given

Compared with O=[N+]([O-])O[C@@H]1CO[C@H]2[C@@H]1OC[C@@H]2O [Isosorbide mononitrate], CN1[C@@H]2CC[C@H]1C[C@@H](OC(=O)C(CO)c1ccccc1)C2 (stereo partly shown) [Atropine sulfate monohydrate] is lower in ThS net change: 477 for the first, 397 for the second.

Going from CCCc1ncc(C[n+]2ccccc2C)c(N)n1 [Amprolium hydrochloride] to Hydralazine hydrochloride, the ThS net change falls from 424 to 214.

First: NCCCCCC(=O)O [Aminocaproic acid]
Second: CN(C)CCCN1c2ccccc2CCc2ccccc21 [Imipramine hydrochloride]
The ThS net change of the first is higher: 456 for the first, 287 for the second.

First: Cc1c(Cl)cccc1Nc1ncccc1C(=O)O.NCCCC[C@H](N)C(=O)O [Clonixin Lysinate]
Second: COc1ccc(CCN(C)CCCC(C#N)(c2ccc(OC)c(OC)c2)C(C)C)cc1OC (stereo not shown) [Verapamil hydrochloride]
The ThS net change of the first is higher: 462 for the first, 325 for the second.

Work on CNCCC(Oc1ccccc1OC)c1ccccc1 (stereo not shown) [Nisoxetine hydrochloride] yielded a ThS net change of 364.

Same assay, conditions: 1280-compound library screen; ThS fluorescence net change over 16 h

Compared with CO/N=C(\C(=O)N[C@@H]1C(=O)N2C(C(=O)O)=C(COC(C)=O)CS[C@H]12)c1csc(N)n1 [Cefotaxime sodium salt], C[C@@H](O)[C@H]1C(=O)N2C(C(=O)O)=C(SCCN=CN)C[C@H]12 [Imipenem] is higher in ThS net change: 384 for the first, 385 for the second.

Compared with CC[N+](C)(CC)CCOC(=O)C1c2ccccc2Oc2ccccc21 [Methantheline bromide], CN(CCOc1ccc(NS(C)(=O)=O)cc1)CCc1ccc(NS(C)(=O)=O)cc1 [Dofetilide] is lower in ThS net change: 400 for the first, 388 for the second.

Going from CC(C)(C)NCC(O)c1ccccc1Cl (stereo not shown) [Tulobuterol] to CC(C)(C)NC[C@H](O)COc1cccc2c1CCCC2=O.Cl [(-) -Levobunolol hydrochloride], the ThS net change falls from 398 to 397.

First: Cn1c(=O)c2[nH]cnc2n(C)c1=O [Theophylline monohydrate]
Second: O=C1NCCN1c1ncc([N+](=O)[O-])s1 [Niridazole]
The ThS net change of the first is lower: 398 for the first, 399 for the second.

Compared with C[C@]12CCC(=O)C=C1CC[C@@H]1[C@@H]2C(=O)C[C@@]2(C)[C@H]1CC[C@]2(O)C(=O)CO [Cortisone], CC[C@H](C)C(=O)O[C@H]1C[C@@H](C)C=C2C=C[C@H](C)[C@H](CC[C@@H]3C[C@@H](O)CC(=O)O3)[C@H]21 [Lovastatin] is higher in ThS net change: 403 for the first, 408 for the second.

With CCCC(CCC)C(=O)O [Valproic acid] the ThS net change was 403.

Same assay, conditions: 1280-compound library screen; […]

First: S=C(NC1CCCCC1)N1CCC(c2cnc[nH]2)CC1 [Thioperamide maleate]
Second: CC(=O)OCC(=O)NCCCOc1cccc(CN2CCCCC2)c1 [Roxatidine Acetate HCl]
The ThS net change of the first is lower: 385 for the first, 411 for the second.

First: N[C@@H](C(=O)N[C@@H]1C(=O)N2C(C(=O)O)=C(Cl)CS[C@H]12)c1ccccc1.O [Cefaclor hydrate]
Second: Nc1ccc(S(=O)(=O)[N-]c2cnc3ccccc3n2)cc1.[Na+] [Sulfaquinoxaline sodium salt]
The ThS net change of the first is lower: 392 for the first, 398 for the second.

Work on CC(=O)O[C@H]1C[C@H](O[C@H]2[C@@H](O)C[C@H](O[C@H]3[C@@H](O)C[C@H](O[C@H]4CC[C@@]5(C)[C@H](CC[C@@H]6[C@@H]5C[C@@H](O)[C@]5(C)[C@@H](C7=CC(=O)OC7)CC[C@]65O)C4)O[C@@H]3C)O[C@@H]2C)O[C@H](C)[C@H]1O[C@@H]1O[C@H](CO)[C@@H](O)[C@H](O)[C@H]1O [Lanatoside C] yielded a ThS net change of 411.

Same assay, conditions: flag: p-tau aggregation inhibitor, ThS net change more than 2 SD from mean

CN(C)[C@@H]1C(O)=C(C(N)=O)C(=O)[C@@]2(O)C(O)=C3C(=O)c4c(O)ccc(Cl)c4[C@@H](O)[C@H]3C[C@@H]12 [Demeclocycline hydrochloride] was tested, and the “PTAI>2SD” value was “*”.

Same assay, conditions: library screen, ThS fluorescence net change over 16 h with p-tau

First: CC(=O)CCCCn1c(=O)c2c(ncn2C)n(C)c1=O [Pentoxifylline]
Second: CCCCOc1cc(C(=O)NCCN(CC)CC)c2ccccc2n1 [Dibucaine]
The ThS net change of the first is higher: 314 for the first, 296 for the second.

Compared with CC(=O)Oc1ccccc1C(=O)Nc1ncc([N+](=O)[O-])s1 [Nitazoxanide], O=C1C(O)=C([C@H]2CC[C@H](c3ccc(Cl)cc3)CC2)C(=O)c2ccccc21 [Atovaquone] is higher in ThS net change: 198 for the first, 266 for the second.

First: CN(C)[C@@H]1C(O)=C(C(N)=O)C(=O)[C@@]2(O)C(O)=C3C(=O)c4c(O)ccc(Cl)c4[C@@H](O)[C@H]3C[C@@H]12 [Demeclocycline hydrochloride]
Second: O=c1cc(-c2ccc(O)c(O)c2)oc2cc(O)cc(O)c12 [Luteolin]
The ThS net change of the first is lower: 117 for the first, 296 for the second.

Compared with C[C@H](N)[C@H](O)c1cccc(O)c1 [Metaraminol bitartrate], Clc1ccc(COC(Cn2ccnc2)c2ccc(Cl)cc2Cl)c(Cl)c1 (stereo not shown) [Miconazole] is lower in ThS net change: 321 for the first, 316 for the second.

Same assay, conditions: p-tau aggregation modulator screen of 1280-compound library; ThS fluorescence net change

Compared with CO/N=C(\C(=O)N[C@@H]1C(=O)N2C(C(=O)O)=C(COC(N)=O)CS[C@H]12)c1ccco1 [Cefuroxime sodium salt], NCCCC[C@H](N[C@@H](CCc1ccccc1)C(=O)O)C(=O)N1CCC[C@H]1C(=O)O [Lisinopril] is lower in ThS net change: 365 for the first, 328 for the second.

First: C[C@H](O)C(=O)Nc1c(I)c(C(=O)NC(CO)CO)c(I)c(C(=O)NC(CO)CO)c1I [Iopamidol]
Second: CCC[C@@H]1C[C@@H](C(=O)N[C@@H]([C@H]2O[C@H](SC)[C@H](O)[C@@H](O)[C@H]2O)[C@H](C)Cl)N(C)C1 [Clindamycin hydrochloride]
The ThS net change of the first is higher: 369 for the first, 344 for the second.

Going from CC(C(=O)O)c1ccc2c(c1)Cc1cccnc1O2 (stereo not shown) [Pranoprofen] to Cc1cccc(Nc2ccccc2C(=O)O)c1C [Mefenamic acid], the ThS net change rises from 345 to 353.

First: CN/C(=N/CCSCc1nc[nH]c1C)NC#N [Cimetidine]
Second: c1ccc(CNc2ncnc3nc[nH]c23)cc1 [Aminopurine, 6-benzyl]
The ThS net change of the first is higher: 356 for the first, 348 for the second.

Compared with CC(C)(Oc1ccc(Cl)cc1)C(=O)O [Clofibric acid], Nc1ccc(O)c(C(=O)O)c1 [Mesalamine] is higher in ThS net change: 349 for the first, 363 for the second.

First: Cc1cn[nH]c1 [Fomepizole]
Second: COC1=CC(=O)C[C@@H](C)[C@]12Oc1c(Cl)c(OC)cc(OC)c1C2=O [Griseofulvin]
The ThS net change of the first is higher: 344 for the first, 337 for the second.

Going from CO[C@H]1C[C@H](O[C@H]2[C@H](C)[C@@H](O[C@@H]3O[C@H](C)C[C@H](N(C)C)[C@H]3OC(C)=O)[C@@H](C)C[C@@]3(CO3)C(=O)[C@H](C)[C@@H](OC(C)=O)[C@@H](C)[C@@H](C)OC(=O)[C@@H]2C)O[C@@H](C)[C@@H]1OC(C)=O [Troleandomycin] to CCN[C@H]1CN(CCCOC)S(=O)(=O)c2sc(S(N)(=O)=O)cc21 [Brinzolamide], the ThS net change falls from 357 to 348.

Same assay, conditions: p-tau aggregation modulator screen of 1280-compound library; […]

Going from CC(C(=O)[O-])c1cccc(Oc2ccccc2)c1.CC(C(=O)[O-])c1cccc(Oc2ccccc2)c1.O.O.[Ca+2] (stereo not shown) [Fenoprofen calcium salt dihydrate] to O.O=C(O)C(O)C(O)C(=O)O.O=C(c1ccc(F)cc1)C1CCN(CCn2c(=O)[nH]c3ccccc3c2=O)CC1 [Ketanserin tartrate hydrate], the ThS net change falls from 366 to 354.

Compared with Nc1ncnc2c1ncn2[C@@H]1O[C@H](COP(=O)(O)O)[C@@H](O)[C@H]1O.O [Adenosine 5'-monophosphate monohydrate], COc1cc2c(c(OC)c1OC)-c1ccc(OC)c(=O)cc1[C@@H](NC(C)=O)CC2 [Colchicine] is lower in ThS net change: 369 for the first, 336 for the second.

Same assay, conditions: p-tau aggregation modulator screen of the compound library, ThS fluorescence net change

First: NCCc1c[nH]cn1 [Histamine dihydrochloride]
Second: C[C@](N)(Cc1ccc(O)c(O)c1)C(=O)O [Methyldopa (L,-)]
The ThS net change of the first is lower: 438 for the first, 447 for the second.

First: CCCCC(=O)N(Cc1ccc(-c2ccccc2-c2nnn[nH]2)cc1)[C@H](C(=O)O)C(C)C [Valsartan]
Second: CC(C)c1nc(CN(C)C(=O)N[C@H](C(=O)N[C@@H](Cc2ccccc2)C[C@H](O)[C@H](Cc2ccccc2)NC(=O)OCc2cncs2)C(C)C)cs1 [Ritonavir]
The ThS net change of the first is lower: 417 for the first, 538 for the second.

Compared with CCOC(=O)O[C@]1(C(=O)OCCl)CC[C@H]2[C@@H]3CCC4=CC(=O)C=C[C@]4(C)[C@H]3[C@@H](O)C[C@@]21C [Loteprednol etabonate], CCCCC(=O)O[C@H]1CC[C@H]2[C@@H]3CCc4cc(O)ccc4[C@H]3CC[C@]12C [Estradiol Valerate] is lower in ThS net change: 531 for the first, 417 for the second.

First: C[C@]1(Cn2ccnn2)[C@H](C(=O)O)N2C(=O)C[C@H]2S1(=O)=O [Tazobactam]
Second: CCN[C@H]1C[C@H](C)S(=O)(=O)c2sc(S(N)(=O)=O)cc21 [Dorzolamide hydrochloride]
The ThS net change of the first is higher: 834 for the first, 463 for the second.

Going from O=C(O)c1ccccc1Nc1cccc(C(F)(F)F)c1 [Flufenamic acid] to O=C(O)c1ccccc1C(=O)Nc1ccc(S(=O)(=O)Nc2nccs2)cc1 [Phthalylsulfathiazole], the ThS net change rises from 416 to 425.

Compared with COc1nc(C)nc(Cl)c1N=C1NCCN1 [Moxonidine], Cc1c(C)c2c(c(C)c1O)CCC(C)(COc1ccc(CC3SC(=O)NC3=O)cc1)O2 (stereo not shown) [Troglitazone] is higher in ThS net change: 433 for the first, 451 for the second.

First: CCn1nc(C(=O)O)c(=O)c2cc3c(cc21)OCO3 [Cinoxacin]
Second: CCc1oc2ccccc2c1C(=O)c1cc(Br)c(O)c(Br)c1 [Benzbromarone]
The ThS net change of the first is lower: 431 for the first, 498 for the second.

Going from c1ccc(-c2ccc(C(c3ccccc3)n3ccnc3)cc2)cc1 (stereo not shown) [Bifonazole] to CC(=O)SCC(Cc1ccccc1)C(=O)NCC(=O)OCc1ccccc1 (stereo not shown) [Racecadotril], the ThS net change rises from 432 to 462.

Going from O=c1[nH]c(=O)n(C2CCCO2)cc1F (stereo not shown) [Tegafur] to Cc1cccc(C)c1NC(=O)C1CCCCN1C (stereo not shown) [Mepivacaine hydrochloride], the ThS net change falls from 448 to 428.

Going from CNC(=O)c1c(I)c(C(=O)NCC(=O)Nc2c(I)c(C(=O)O)c(I)c(C(=O)NCCO)c2I)c(I)c(N(C)C(C)=O)c1I [Ioxaglic acid] to COc1cc(C(=O)NS(=O)(=O)c2ccccc2C)ccc1Cc1cn(C)c2ccc(NC(=O)OC3CCCC3)cc12 [Zafirlukast], the ThS net change rises from 442 to 549.

In the case of C[C@H](Cc1cc2c(c(C(N)=O)c1)N(CCCO)CC2)NCCOc1ccccc1OCC(F)(F)F [Silodosin], the ThS net change was 478.
